Source: patent US20260265246A1 (ICAHN SCHOOL OF MEDICINE AT MOUNT SINAI, priority 2021, published 2026)
Like-named read-outs stand apart in the source and are kept apart here.

Legend:
5HT2A receptor [1] = biological target: T1, 5HT2A receptor (Homo sapiens, UniProt P28223); assay: biochemical; assay type: binding; set-up: expressed in transfected cells; crude membranes; conditions: secondary radioligand binding, Ki from IC50 by Cheng-Prusoff
5HT2A receptor [2] = biological target: T1, 5HT2A receptor; assay: cell-based; set-up: expressed in transfected cells; host or cells: HEK293T cells, transient co-transfection; conditions: BRET2 Gαq dissociation, HEK293T cells; for Emax: HEK-293T, normalized to 5-HT, read-out: 5HT2A Gq Emax (%)
5HT2A receptor [3] = biological target: T1, 5HT2A receptor; assay: cell-based; set-up: expressed in transfected cells; host or cells: HEK293T cells, transient co-transfection; conditions: BRET1 beta-arrestin2 recruitment, HEK293T cells; for Emax: HEK-293T, normalized to 5-HT, read-out: 5HT2A β-Arr Emax (%)

T1 sequence (P28223 whole entry): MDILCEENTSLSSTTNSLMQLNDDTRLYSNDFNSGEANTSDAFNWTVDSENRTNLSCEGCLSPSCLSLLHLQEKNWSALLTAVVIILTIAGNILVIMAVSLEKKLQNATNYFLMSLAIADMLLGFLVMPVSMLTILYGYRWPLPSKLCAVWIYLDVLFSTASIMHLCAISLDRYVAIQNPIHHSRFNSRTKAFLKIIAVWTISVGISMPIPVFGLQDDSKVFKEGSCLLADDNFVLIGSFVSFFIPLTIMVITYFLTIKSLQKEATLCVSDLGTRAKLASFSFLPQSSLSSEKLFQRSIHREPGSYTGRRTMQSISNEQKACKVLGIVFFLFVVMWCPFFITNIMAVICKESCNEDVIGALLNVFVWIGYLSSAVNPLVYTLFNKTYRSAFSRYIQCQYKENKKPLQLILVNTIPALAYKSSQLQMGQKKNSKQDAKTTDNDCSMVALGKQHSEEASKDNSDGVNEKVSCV

SMILES | Ki (5HT2A receptor [1]; 5HT2A Ki (nM)) [nM] | EC50 (5HT2A receptor [2]; 5HT2A Gq EC50 (nM)) [nM] | Emax (5HT2A receptor [2]) [%] | EC50 (5HT2A receptor [3]; 5HT2A β-Arr EC50 (nM)) [nM] | Emax (5HT2A receptor [3]) [%] | Ki (5HT2A receptor [1]; read-out: 5HT2A Ki) [nM] | EC50 (5HT2A receptor [2]; read-out: 5HT2A Gq EC50) [nM] | EC50 (5HT2A receptor [3]; read-out: 5HT2A β-Arr EC50) [nM]
CN1CCC=C(c2c[nH]c3cc(Cl)ccc23)C1 [Example 32, 6-chloro-3-(1-methyl-1,2,5,6-tetrahydropyridin-3-yl)-1H-indole] | 236 | 304 | 77.5 | 709 | 45.5 |  |  | 
Cc1cccc2c(C3=CCCNC3)c[nH]c12 [Example 41, 7-methyl-3-(1,2,5,6-tetrahydropyridin-3-yl)-1H-indole] | 1380 | 234 | 92.6 | 1410 | 83.2 |  |  | 
CN1CCC=C(c2c[nH]c3c(Cl)cccc23)C1 [Example 44, 7-chloro-3-(1-methyl-1,2,5,6-tetrahydropyridin-3-yl)-1H-indole] |  |  | 86.6 |  | 37.6 | 76.3 | 18.9 | 78.8
C1=C(c2n[nH]c3ccccc23)CNCC1 [Example 45, 3-(1,2,5,6-tetrahydropyridin-3-yl)-1H-indazole] | 113 |  | 98.3 | 138 | 68.1 |  |  | 
CN1CCC=C(c2n[nH]c3ccccc23)C1 [Example 46, 3-(1-methyl-1,2,5,6-tetrahydropyridin-3-yl)-1H-indazole] |  |  | 62.6 | 115 | 21.9 | 87.3 | 3.3 | 
CCc1cccc2c(C3=CCCNC3)c[nH]c12 [Example 50, 7-ethyl-3-(1,2,5,6-tetrahydropyridin-3-yl)-1H-indole] | 244 |  | 92.6 |  | 79.1 |  | 4.7 | 67
CCc1cccc2c(C3=CCCN(C)C3)c[nH]c12 [Example 52, 7-ethyl-3-(1-methyl-1,2,5,6-tetrahydropyridin-3-yl)-1H-indole] |  |  | 89.3 | 880 | 73.4 | 42 | 25 | 
CN1CCC=C(c2c[nH]c3c(F)cccc23)C1 [Example 56, 7-fluoro-3-(1-methyl-1,2,5,6-tetrahydropyridin-3-yl)-1H-indole] |  |  | 96.9 |  | 49.5 | 59.8 | 16.8 | 57.7
CN1CCC=C(c2c[nH]c3c(C(F)(F)F)cccc23)C1 [Example 59, 3-(1-methyl-1,2,5,6-tetrahydropyridin-3-yl)-7-(trifluoromethyl)-1H-indole] |  |  | 81.7 |  | 56.9 | 25.8 | 17.8 | 75.5
CCc1[nH]c2ccccc2c1C1=CCCNC1 [Example 62, 2-ethyl-3-(1,2,5,6-tetrahydropyridin-3-yl)-1H-indole] | 810 |  | 49.1 | 633 | 45.1 |  | 75.7 | 
Clc1[nH]c2ccccc2c1C1=CCCNC1 [Example 64, 2-chloro-3-(1,2,5,6-tetrahydropyridin-3-yl)-1H-indole] | 186 | 61.9 | 91.8 | 219 | 60.2 |  |  | 
Clc1cccc2c(C3=CCCN(Cc4ccccc4)C3)c[nH]c12 [Example 67, 3-(1-benzyl-1,2,5,6-tetrahydropyridin-3-yl)-7-chloro-1H-indole] | 90.2 | 44.1 | 48.8 | 756 | 46.6 |  |  | 
Cc1cccc2c(C3=CCCN(Cc4ccccc4)C3)c[nH]c12 [Example 68, 3-(1-benzyl-1,2,5,6-tetrahydropyridin-3-yl)-7-methyl-1H-indole] | 115 | 127 | 40.2 | 490 | 42.4 |  |  | 
CCc1cccc2c(C3=CCCN(Cc4ccccc4)C3)c[nH]c12 [Example 69, 3-(1-benzyl-1,2,5,6-tetrahydropyridin-3-yl)-7-ethyl-1H-indole] | 199 | 98.2 | 49.7 | 1740 | 63.5 |  |  | 
Fc1cccc2c(C3=CCCN(Cc4ccccc4)C3)c[nH]c12 [Example 73, 3-(1-benzyl-1,2,5,6-tetrahydropyridin-3-yl)-7-fluoro-1H-indole] | 151 | 116 | 81.9 | 331 | 56.5 |  |  | 
Cc1ccc2c(C3=CCCNC3)n[nH]c2c1 [Example 76, 6-methyl-3-(1,2,5,6-tetrahydropyridin-3-yl)-1H-indazole] | 2460 | 118 | 93.6 | 1500 | 88.7 |  |  | 
Clc1ccc2c(C3=CCCNC3)n[nH]c2c1 [Example 77, 6-chloro-3-(1,2,5,6-tetrahydropyridin-3-yl)-1H-indazole] | 439 |  | 93.9 | 430 | 76.7 |  | 38.9 | 

SMILES | Ki (5HT2A receptor [1]; 5HT2A Ki (nM)) [nM] | EC50 (5HT2A receptor [2]; 5HT2A Gq EC50 (nM)) [nM] | Emax (5HT2A receptor [2]) [%] | EC50 (5HT2A receptor [3]; 5HT2A β-Arr EC50 (nM)) [nM] | Emax (5HT2A receptor [3]) [%] | Ki (5HT2A receptor [1]; read-out: 5HT2A Ki) [nM] | EC50 (5HT2A receptor [2]; read-out: 5HT2A Gq EC50) [nM] | EC50 (5HT2A receptor [3]; read-out: 5HT2A β-Arr EC50) [nM]
Fc1ccc2c(C3=CCCNC3)n[nH]c2c1 [Example 78, 6-fluoro-3-(1,2,5,6-tetrahydropyridin-3-yl)-1H-indazole] |  |  | 79.4 |  | 59.4 | 57.6 | 11.5 | 115
N#Cc1ccc2c(C3=CCCNC3)n[nH]c2c1 [Example 79, 3-(1,2,5,6-tetrahydropyridin-3-yl)-1H-indazole-6-carbonitrile] | 441 | 874 | 48.6 | 1710 | 82.1 |  |  | 
Cc1cccc2[nH]nc(C3=CCCNC3)c12 [Example 80, 4-methyl-3-(1,2,5,6-tetrahydropyridin-3-yl)-1H-indazole] | 254 |  | 83.4 | 698 | 71.8 |  | 73.8 | 
Fc1cccc2[nH]nc(C3=CCCNC3)c12 [Example 81, 4-fluoro-3-(1,2,5,6-tetrahydropyridin-3-yl)-1H-indazole] | 348 |  | 92.3 | 211 | 75.7 |  | 26.5 | 
N#Cc1cccc2[nH]nc(C3=CCCNC3)c12 [Example 82, 3-(1,2,5,6-tetrahydropyridin-3-yl)-1H-indazole-4-carbonitrile] | 153 |  | 95.9 | 562 | 87.9 |  | 12 | 
COc1cccc2[nH]nc(C3=CCCNC3)c12 [Example 83, 4-methoxy-3-(1,2,5,6-tetrahydropyridin-3-yl)-1H-indazole] |  |  | 81.7 |  | 75.9 | 78.8 | 12.5 | 109
Clc1ccc2[nH]nc(C3=CCCNC3)c2c1 [Example 84, 5-chloro-3-(1,2,5,6-tetrahydropyridin-3-yl)-1H-indazole] |  |  | 94.8 |  | 97 | 25.3 | 3.4 | 52.4
Fc1ccc2[nH]nc(C3=CCCNC3)c2c1 [Example 85, 5-fluoro-3-(1,2,5,6-tetrahydropyridin-3-yl)-1H-indazole] |  |  | 88.3 |  | 96 | 33.4 | 2.8 | 68.6
N#Cc1ccc2[nH]nc(C3=CCCNC3)c2c1 [Example 86, 3-(1,2,5,6-tetrahydropyridin-3-yl)-1H-indazole-5-carbonitrile] | 370 |  | 90.2 | 354 | 95.1 |  | 15.9 | 
Cc1cccc2c(C3=CCCNC3)n[nH]c12 [Example 88, 7-methyl-3-(1,2,5,6-tetrahydropyridin-3-yl)-1H-indazole] | 211 |  | 72.6 | 227 | 64.8 |  | 52.8 | 
Clc1cccc2c(C3=CCCNC3)n[nH]c12 [Example 89, 7-chloro-3-(1,2,5,6-tetrahydropyridin-3-yl)-1H-indazole] |  |  | 93.7 |  | 85.1 | 85.2 | 11.4 | 83.5
Fc1cccc2c(C3=CCCNC3)n[nH]c12 [Example 90, 7-fluoro-3-(1,2,5,6-tetrahydropyridin-3-yl)-1H-indazole] | 1390 |  | 95.6 |  | 70 |  | 9.2 | 86
N#Cc1cccc2c(C3=CCCNC3)n[nH]c12 [Example 91, 3-(1,2,5,6-tetrahydropyridin-3-yl)-1H-indazole-7-carbonitrile] | 237 |  | 126 | 105 | 86 |  | 17.2 | 
CN1CCC=C(c2n[nH]c3cc(F)ccc23)C1 [Example 95, 6-fluoro-3-(1-methyl-1,2,5,6-tetrahydropyridin-3-yl)-1H-indazole] |  |  | 47.1 |  | 27 | 47.3 | 21.1 | 467
Cc1cccc2[nH]nc(C3=CCCN(C)C3)c12 [Example 97, 4-methyl-3-(1-methyl-1,2,5,6-tetrahydropyridin-3-yl)-1H-indazole] | 786 |  | 69 | 605 | 64.6 |  | 80.4 | 
CN1CCC=C(c2n[nH]c3cccc(F)c23)C1 [Example 98, 4-fluoro-3-(1-methyl-1,2,5,6-tetrahydropyridin-3-yl)-1H-indazole] | 835 | 105 | 58.5 | 483 | 54 |  |  | 
